Data from patent US20210395239A1 (Hoffmann-La Roche Inc., priority 2018, published 2021).

These compounds were tested against T1, hTLR9 (Homo sapiens, UniProt Q9NR96) (assay: HEK293-Blue-hTLR-9 cells assay (SEAP reporter, ODN2006 stimulation)). Details: HEK293-Blue-hTLR9 cells, ODN2006, 20 hrs; read-out: HEK/hTLR9 IC50.
T1 sequence (Q9NR96 26-1032): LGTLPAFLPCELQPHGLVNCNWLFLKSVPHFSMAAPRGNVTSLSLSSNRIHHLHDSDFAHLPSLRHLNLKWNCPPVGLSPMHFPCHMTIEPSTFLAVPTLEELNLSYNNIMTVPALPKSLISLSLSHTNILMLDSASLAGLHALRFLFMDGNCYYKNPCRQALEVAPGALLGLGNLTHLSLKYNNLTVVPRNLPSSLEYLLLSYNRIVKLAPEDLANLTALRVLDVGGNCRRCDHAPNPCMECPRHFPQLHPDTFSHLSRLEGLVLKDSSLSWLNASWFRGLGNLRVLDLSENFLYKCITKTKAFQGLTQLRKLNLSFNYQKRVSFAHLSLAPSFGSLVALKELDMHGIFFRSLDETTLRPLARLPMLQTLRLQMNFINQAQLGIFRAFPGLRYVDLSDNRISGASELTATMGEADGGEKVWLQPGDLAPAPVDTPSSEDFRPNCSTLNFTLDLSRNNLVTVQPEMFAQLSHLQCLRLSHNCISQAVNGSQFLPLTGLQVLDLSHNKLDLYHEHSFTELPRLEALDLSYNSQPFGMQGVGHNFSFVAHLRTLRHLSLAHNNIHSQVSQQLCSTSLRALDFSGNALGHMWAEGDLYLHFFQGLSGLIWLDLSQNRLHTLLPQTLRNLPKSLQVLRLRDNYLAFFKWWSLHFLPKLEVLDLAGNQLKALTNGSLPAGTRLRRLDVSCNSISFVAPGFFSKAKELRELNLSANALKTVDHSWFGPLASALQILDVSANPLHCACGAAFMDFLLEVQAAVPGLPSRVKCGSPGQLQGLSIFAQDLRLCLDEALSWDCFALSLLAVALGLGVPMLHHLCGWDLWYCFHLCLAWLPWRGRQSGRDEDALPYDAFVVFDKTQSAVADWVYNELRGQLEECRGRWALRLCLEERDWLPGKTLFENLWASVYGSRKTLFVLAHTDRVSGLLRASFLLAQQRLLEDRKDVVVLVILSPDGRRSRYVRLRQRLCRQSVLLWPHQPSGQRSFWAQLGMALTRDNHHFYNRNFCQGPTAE
Assay type: cell-based
Design: host or cells: HEK293 (HEK-Blue hTLR9)
How it was run: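 HEK293-Blue-hTLR9 cells with NF-κB/AP-1-driven SEAP reporter treated with serially diluted compound (1% DMSO final) plus ODN2006 for 20 h at 37 °C. Supernatant SEAP measured with QUANTI-Blue, 2 h at 37 °C, absorbance 620–655 nm; antagonism seen as reduced reporter signal.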
For Cc1cc(N2C[C@@H](N)[C@@H](F)C2)nc(N2CCN(C[C@H]3CN(c4ccc(C#N)c5nccnc45)C[C@@H](C)O3)CC2)n1 [Example 115, 8-[(2S,6R)-2-[[4-[4-[(3R,4S)-3-amino-4-fluoro-pyrrolidin-1-yl]-6-methyl-pyrimidin-2-yl]piperazin-1-yl]methyl]-6-methyl-morpholin-4-yl]quinoxaline-5-carbonitrile], the IC50 was 38 nM. Work on CO[C@@H]1CN(c2ccc(N3CCN(C[C@H]4CN(c5ccc(C#N)n6ncc(F)c56)C[C@@H](C)O4)CC3)cn2)C[C@H]1N [Example 166, 4-[(2S,6R)-2-[[4-[6-[(3R,4R)-3-amino-4-methoxy-pyrrolidin-1-yl]-3-pyridyl]piperazin-1-yl]methyl]-6-methyl-morpholin-4-yl]-3-fluoro-pyrazolo[1,5-a]pyridine-7-carbonitrile] yielded an IC50 of 46 nM. [2H]c1ccc2c(N3C[C@H](CN4CCN(c5nc(C)cc(N6C[C@H](OC)[C@@H](N)C6)n5)CC4)O[C@H](C)C3)ccc(C#N)c2n1 [Example 134, 5-[(2S,6R)-2-[[4-[4-[(3S,4S)-3-amino-4-methoxy-pyrrolidin-1-yl]-6-methyl-pyrimidin-2-yl]piperazin-1-yl]methyl]-6-methyl-morpholin-4-yl]-2-deuterio-quinoline-8-carbonitrile] showed an IC50 of 48 nM. In the case of C[C@@H]1CN(c2ccc(C#N)c3nccnc23)C[C@H](CN2CCN(c3ccnc(N4C[C@H](N)[C@@H](F)C4)n3)CC2)O1 [Example 107, 8-[(2S,6R)-2-[[4-[2-[(3S,4S)-3-amino-4-fluoro-pyrrolidin-1-yl]pyrimidin-4-yl]piperazin-1-yl]methyl]-6-methyl-morpholin-4-yl]quinoxaline-5-carbonitrile], the IC50 is reported as 80 nM. For [2H]c1ccc2c(N3C[C@H](CN4CC(c5cccc(N6CC(C)(N)C6)n5)C4)O[C@H](C)C3)ccc(C#N)c2n1 [Example 159, 5-[(2S,6R)-2-[[3-[6-(3-amino-3-methyl-azetidin-1-yl)-2-pyridyl]azetidin-1-yl]methyl]-6-methyl-morpholin-4-yl]-2-deuterio-quinoline-8-carbonitrile], the IC50 was 100 nM. In the case of Cc1cc(N2C[C@@H](N)[C@](C)(O)C2)nc(N2CCN(C[C@H]3CN(c4ccc(C#N)c5nccnc45)C[C@@H](C)O3)CC2)n1 [Example 125, 8-[(2S,6R)-2-[[4-[4-[(3R,4R)-4-amino-3-hydroxy-3-methyl-pyrrolidin-1-yl]-6-methyl-pyrimidin-2-yl]piperazin-1-yl]methyl]-6-methyl-morpholin-4-yl]quinoxaline-5-carbonitrile], the IC50 is reported as 83 nM. In the case of C[C@@H]1CN(c2ccc(C#N)n3nccc23)C[C@H](CN2CC(c3ccc(N4CC(C)(N)C4)cc3)C2)O1 [Example 163, 4-[(2S,6R)-2-[[3-[4-(3-amino-3-methyl-azetidin-1-yl)phenyl]azetidin-1-yl]methyl]-6-methyl-morpholin-4-yl]pyrazolo[1,5-a]pyridine-7-carbonitrile], the IC50 is reported as 101 nM. Work on C[C@@H]1CN(c2ccc(C#N)c3nccnc23)C[C@H](CN2CCN(c3nccc(N4CC(N)C4)n3)CC2)O1 [Example 118, 8-[(2S,6R)-2-[[4-[4-(3-aminoazetidin-1-yl)pyrimidin-2-yl]piperazin-1-yl]methyl]-6-methyl-morpholin-4-yl]quinoxaline-5-carbonitrile] yielded an IC50 of 51 nM. C[C@@H]1CN(c2ccc(C#N)c3ncccc23)C[C@H](CN2CCN(c3ncc(F)c(N4CCNCC4)n3)CC2)O1 [Example 94, 5-[(2S,6R)-2-[[4-(5-fluoro-4-piperazin-1-yl-pyrimidin-2-yl)piperazin-1-yl]methyl]-6-methyl-morpholin-4-yl]quinoline-8-carbonitrile] showed an IC50 of 51 nM. With C[C@@H]1CN(c2ccc(C#N)n3nccc23)C[C@H](CN2CC(c3ccc(N4CC(C)(N)C4)nc3)C2)O1 [Example 157, 4-[(2S,6R)-2-[[3-[6-(3-amino-3-methyl-azetidin-1-yl)-3-pyridyl]azetidin-1-yl]methyl]-6-methyl-morpholin-4-yl]pyrazolo[1,5-a]pyridine-7-carbonitrile] the IC50 was 31 nM. Work on Cc1cc(N2CCNCC2)nc(N2CCN(C[C@H]3CN(c4ccc(C#N)c5nccnc45)C[C@@H](C)O3)CC2)n1 [Example 114, 8-[(2R,6S)-2-methyl-6-[[4-(4-methyl-6-piperazin-1-yl-pyrimidin-2-yl)piperazin-1-yl]methyl]morpholin-4-yl]quinoxaline-5-carbonitrile] yielded an IC50 of 62 nM. C[C@@H]1CN(c2ccc(C#N)n3ncc(F)c23)C[C@H](CN2CCN(c3ccc(N4CC(C)(N)C4)nc3)CC2)O1 [Example 154, 4-[(2S,6R)-2-[[4-[6-(3-amino-3-methyl-azetidin-1-yl)-3-pyridyl]piperazin-1-yl]methyl]-6-methyl-morpholin-4-yl]-3-fluoro-pyrazolo[1,5-a]pyridine-7-carbonitrile] gave an IC50 of 112 nM. Cc1ccc(N2C[C@H](CN3CCN(c4ccnc(N5C[C@H]6NCCO[C@@H]6C5)n4)CC3)O[C@H](C)C2)c2nccnc12 [Example 129, (4aR,7aR)-6-[4-[4-[[(2S,6R)-6-methyl-4-(8-methylquinoxalin-5-yl)morpholin-2-yl]methyl]piperazin-1-yl]pyrimidin-2-yl]-3,4,4a,5,7,7a-hexahydro-2H-pyrrolo[3,4-b][1,4]oxazine] was tested, and the IC50 was 171 nM. For COC1CCN(c2nccc(N3CCN(C[C@H]4CN(c5ccc(C#N)c6ncccc56)C[C@@H](C)O4)CC3)n2)CC1N (stereo partly drawn) [Example 109, 5-[(2S,6R)-2-[[4-[2-(3-amino-4-methoxy-1-piperidyl)pyrimidin-4-yl]piperazin-1-yl]methyl]-6-methyl-morpholin-4-yl]quinoline-8-carbonitrile], the IC50 was 46 nM. Cc1cc(N2CC(N)C2)nc(N2CCN(C[C@H]3CN(c4ccc(C#N)c5nccnc45)C[C@@H](C)O3)CC2)n1 [Example 123, 8-[(2S,6R)-2-[[4-[4-(3-aminoazetidin-1-yl)-6-methyl-pyrimidin-2-yl]piperazin-1-yl]methyl]-6-methyl-morpholin-4-yl]quinoxaline-5-carbonitrile] gave an IC50 of 31 nM. [2H]c1ccc2c(N3C[C@H](CN4CC(c5cnc(N6CC(C)(N)C6)cc5C)C4)O[C@H](C)C3)ccc(C#N)c2n1 [Example 145, 5-[(2S,6R)-2-[[3-[6-(3-amino-3-methyl-azetidin-1-yl)-4-methyl-3-pyridyl]azetidin-1-yl]methyl]-6-methyl-morpholin-4-yl]-2-deuterio-quinoline-8-carbonitrile] showed an IC50 of 31 nM. For C[C@@H]1CN(c2ccc(C#N)c3ncccc23)C[C@H](CN2CCN(c3ccnc(N4C[C@@H](N)[C@@H](F)C4)n3)CC2)O1 [Example 101, 5-[(2S,6R)-2-[[4-[2-[(3R,4S)-3-amino-4-fluoro-pyrrolidin-1-yl]pyrimidin-4-yl]piperazin-1-yl]methyl]-6-methyl-morpholin-4-yl]quinoline-8-carbonitrile], the IC50 was 31 nM. For C[C@@H]1CN(c2ccc(C#N)c3ncccc23)C[C@H](CN2CCN(c3ccc(CN)cc3)CC2)O1 [Example 5, 5-[(2S,6R)-2-[[4-[4-(aminomethyl)phenyl]piperazin-1-yl]methyl]-6-methyl-morpholin-4-yl]quinoline-8-carbonitrile], the IC50 was 198 nM. CO[C@@H]1CN(c2cc(C)nc(N3CCN(C[C@H]4CN(c5ccc(C#N)c6nccnc56)C[C@@H](C)O4)CC3)n2)C[C@@H]1N [Example 120, 8-[(2S,6R)-2-[[4-[4-[(3S,4R)-3-amino-4-methoxy-pyrrolidin-1-yl]-6-methyl-pyrimidin-2-yl]piperazin-1-yl]methyl]-6-methyl-morpholin-4-yl]quinoxaline-5-carbonitrile] showed an IC50 of 31 nM. Cc1cc(N2CC(C)(N)C2)cnc1N1CCN(C[C@H]2CN(c3ccc(C#N)n4ncc(F)c34)C[C@@H](C)O2)CC1 [Example 148, 4-[(2S,6R)-2-[[4-[5-(3-amino-3-methyl-azetidin-1-yl)-3-methyl-2-pyridyl]piperazin-1-yl]methyl]-6-methyl-morpholin-4-yl]-3-fluoro-pyrazolo[1,5-a]pyridine-7-carbonitrile] was tested, and the IC50 was 75 nM. In the case of C[C@@H]1CN(c2ccc(C#N)c3nccnc23)C[C@H](CN2CCN(c3ccnc(N4CC[C@H](N)[C@H](F)C4)n3)CC2)O1 [Example 111, 8-[(2S,6R)-2-[[4-[2-[(3R,4S)-4-amino-3-fluoro-1-piperidyl]pyrimidin-4-yl]piperazin-1-yl]methyl]-6-methyl-morpholin-4-yl]quinoxaline-5-carbonitrile], the IC50 is reported as 37 nM.
